Measurements: patent publication US20090076105A1, “PREVENTIVE OR THERAPEUTIC AGENT FOR CEREBRAL ISCHEMIC INJURY OR CEREBRAL ISCHEMIA REPERFUSION IN STROKE” (SANWA KAGAKU KENKYUSHO CO., LTD., priority 2006, published 2009)

Tests used:
[1] = tested on: mouse models with middle cerebral artery occlusion; assay: Mouse models with middle cerebral artery occlusion (MCAO, 2 h) and reperfusion: neurological symptoms, cerebral infarction size and volume; format: in vivo; conditions: for Distribution of neurological scores: score 0 (number of mice) / Distribution of neurological scores: score 1 (number of mice) / Distribution of neurological scores: score 2 (number of mice) / Distribution of neurological scores: score 3 (number of mice) / Neurological scores Mean ± SEM: scored 22 hours after reperfusion, n = 9; for Neurological scores Mean ± SEM: score 0-3
Text: Mouse models with acute ischemic stroke, namely, mouse models with middle cerebral artery occlusion were used as evaluation systems. The experiment consists of three experiments, i.e., Experiment 1 to evaluate the therapeutic efficacy of fidarestat (control group and fidarestat administration group), Experiment 2 to evaluate the protective effect of fidarestat (control group and fidarestat administration group), and Experiment 3 to evaluate the role of AR (wild-type mouse group and AR gene-deficient mouse group).
Used mice (C57BL/6J line, 22 to 28 g of body weight) were subjected to right middle cerebral artery occlusion (MCAO) by the filament method under gas anesthesia over 2 hours. Thereafter, anesthesia was terminated and the mice were kept in an intensive care system (ThermoCare, Inc) at 32° C. for 4 to 6 hours. The neurological symptoms, the cerebral infarction size, and the cerebral infarction volume were used as endpoints.
The evaluation of the neurological symptoms was determined 22 hours after reperfusion based on the following four scores:
0: no neurological deficit (normal); 1: stretching of the opposite forefoot (mild); 2: contra lateral circling (moderate); and 3: loss of walking and righting reflex (severe).
Evaluations of the cerebral infarction size and the cerebral infarction volume were performed as follows. After the evaluation of the neurological symptoms, the mouse brains were removed immediately and cut into 6 coronary slices with a thickness of 2 mm. In order to discover the sites of infarction, the slices were stained with 2% triphenyltetrazolium chloride (TTC) in a darkroom for 15 minutes and then fixed in 10% formalin buffer overnight. The posterior surface of each brain slice was photographed and analyzed using a digital image analyzing system (NeuroLucida, MicroBrightfield Inc.) The cerebral infarction size and the cerebral infarction volume (%) were calculated by an indirect method.
In Experiment 1 to evaluate the therapeutic efficacy of fidarestat, fidarestat was administered to the mice at 2 mg/kg 15 minutes before reperfusion. In Experiment 2 to evaluate the protective effect of fidarestat, fidarestat was administered to the mice at 10 mg/kg 30 minutes before occlusion. Only solvent was administered to the control group. In each case, forced intragastric administration was carried out.

[2] = as reported in Hatsumei Kyokai Kokai Giho No. 2006-500058; cited from earlier work
[3] = Experiment 1 (therapeutic efficacy): 2 mg/kg intragastric 15 minutes before reperfusion
[4] = Experiment 2 (protective effect): 10 mg/kg intragastric 30 minutes before occlusion

Compound: NC(=O)[C@@H]1C[C@]2(NC(=O)NC2=O)c2cc(F)ccc2O1 [Fidarestat, (2S,4S)-6-fluoro-2′,5′-dioxospiro[chroman-4,4′-imidazolidine]-2-carboxamide]
- Cerebral infarction size observed after ischemic reperfusion ([1]; Experiment 1 (therapeutic efficacy): 2 mg/kg 15 minutes before reperfusion, FIG. 1, brain slice Nos. 3 and 4): significantly reduced
- Cerebral infarction volume ([1]; Experiment 1 (therapeutic efficacy): 2 mg/kg 15 minutes before reperfusion, FIG. 4): the same result was also obtained
- (Dead) number of mice [1, 3]: (n = 2)
- Distribution of neurological scores: score 0 (number of mice) [1, 3]: 0
- Distribution of neurological scores: score 1 (number of mice) [1, 3]: 7
- Distribution of neurological scores: score 2 (number of mice) [1, 3]: 2
- Distribution of neurological scores: score 3 (number of mice) [1, 3]: 0
- Neurological scores Mean ± SEM ([1]; Experiment 1 (therapeutic efficacy): 2 mg/kg intragastric 15 minutes before reperfusion, P < 0.02 vs vehicle): 1.22 ± 0.15
- Cerebral infarction size observed after ischemic reperfusion ([1]; Experiment 2 (protective effect): 10 mg/kg 30 minutes before occlusion, FIG. 2, brain slice Nos. 3 and 4): significantly reduced
- Cerebral infarction volume ([1]; Experiment 2 (protective effect): 10 mg/kg 30 minutes before occlusion, FIG. 5): the same result was also obtained
- Distribution of neurological scores: score 0 (number of mice) [1, 4]: 0
- Distribution of neurological scores: score 1 (number of mice) [1, 4]: 7
- Distribution of neurological scores: score 2 (number of mice) [1, 4]: 2
- Distribution of neurological scores: score 3 (number of mice) [1, 4]: 0
- Neurological scores Mean ± SEM ([1]; Experiment 2 (protective effect): 10 mg/kg intragastric 30 minutes before occlusion, P < 0.05 vs vehicle): 1.22 ± 0.14
- Effect on the worsening of the neurological symptoms observed after ischemic reperfusion ([1]; Experiments 1 and 2 (2 mg/kg 15 minutes before reperfusion; 10 mg/kg 30 minutes before occlusion)): significant effect
- Pharmacological effect on the blood coagulation system and the circulatory system [2]: no pharmacological effect
